Results taken from ChEMBL document CHEMBL1201861, “Genomics of Drug Sensitity in Cancer screening data, Wellcome Trust Sanger Institute”.

Tested on: COLO-800;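 note: growth inhibition of COLO-800 cells, read out with a cell viability assay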
Assay: cells
Assay type: functional, cell-based, Homo sapiens
Settings: Homo sapiens, COLO-800
Description: SANGER: Inhibition of human COLO-800 cell growth in a cell viability assay.

Row | Structure (SMILES) | IC50
1 | COC(=O)[C@H](CCSC)NC(=O)c1ccc(NC[C@@H](N)CS)cc1-c1ccccc1 | > 1020 nM

Tested on: COLO-829
Assay: cells
Assay type: functional, cell-based, Homo sapiens
Settings: Homo sapiens, COLO-829
Description: SANGER: Inhibition of human COLO-829 cell growth in a cell viability assay.

Row | Structure (SMILES) | IC50
2 | COC(=O)[C@H](CCSC)NC(=O)c1ccc(NC[C@@H](N)CS)cc1-c1ccccc1 | > 1020 nM

Tested on: CTV-1;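 note: growth inhibition of the cell line, read out with a cell viability assay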
Assay: cells
Assay type: functional, cell-based, Homo sapiens
Settings: Homo sapiens, CTV-1
Description: SANGER: Inhibition of human CTV-1 cell growth in a cell viability assay.

Row | Structure (SMILES) | IC50
3 | COC(=O)[C@H](CCSC)NC(=O)c1ccc(NC[C@@H](N)CS)cc1-c1ccccc1 | > 1020 nM

Tested on: CW-2;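 note: growth inhibition of CW-2 cells, read out by a cell viability assay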
Assay: cells
Assay type: functional, cell-based, Homo sapiens
Settings: Homo sapiens, CW-2
Description: SANGER: Inhibition of human CW-2 cell growth in a cell viability assay.

Row | Structure (SMILES) | IC50
4 | COC(=O)[C@H](CCSC)NC(=O)c1ccc(NC[C@@H](N)CS)cc1-c1ccccc1 | > 1020 nM

Tested on: D283 Med
Assay: cells
Assay type: functional, cell-based, Homo sapiens
Settings: Homo sapiens, D283 Med
Description: SANGER: Inhibition of human D-283MED cell growth in a cell viability assay.

Row | Structure (SMILES) | IC50
5 | COC(=O)[C@H](CCSC)NC(=O)c1ccc(NC[C@@H](N)CS)cc1-c1ccccc1 | > 1020 nM

Tested on: EKVX;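 note: growth inhibition of human EKVX cells, read out with a cell viability assay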
Assay: cells
Assay type: functional, cell-based, Homo sapiens
Settings: Homo sapiens, EKVX
Description: SANGER: Inhibition of human EKVX cell growth in a cell viability assay.

Row | Structure (SMILES) | IC50
6 | COC(=O)[C@H](CCSC)NC(=O)c1ccc(NC[C@@H](N)CS)cc1-c1ccccc1 | > 1020 nM

Tested on: ES7;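 note: growth inhibition of cultured human ES7 cells, read out as cell viability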
Assay: cells
Assay type: functional, cell-based, Homo sapiens
Settings: Homo sapiens, ES7
Description: SANGER: Inhibition of human ES7 cell growth in a cell viability assay.

Row | Structure (SMILES) | IC50
7 | COC(=O)[C@H](CCSC)NC(=O)c1ccc(NC[C@@H](N)CS)cc1-c1ccccc1 | > 1020 nM

Tested on: ETK-1;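 note: growth inhibition of human ETK-1 cells, read out with a cell viability assay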
Assay: cells
Assay type: functional, cell-based, Homo sapiens
Settings: Homo sapiens, ETK-1
Description: SANGER: Inhibition of human ETK-1 cell growth in a cell viability assay.

Row | Structure (SMILES) | IC50
8 | COC(=O)[C@H](CCSC)NC(=O)c1ccc(NC[C@@H](N)CS)cc1-c1ccccc1 | > 1020 nM

Tested on: EW-18;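 note: growth inhibition of EW-18 cells, read out by a cell viability assay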
Assay: cells
Assay type: functional, cell-based, Homo sapiens
Settings: Homo sapiens, EW-18; read-out: IC50
Description: SANGER: Inhibition of human EW-18 cell growth in a cell viability assay.

Row | Structure (SMILES) | IC50
9 | COC(=O)[C@H](CCSC)NC(=O)c1ccc(NC[C@@H](N)CS)cc1-c1ccccc1 | > 1020 nM

Tested on: EOL1;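 note: growth inhibition of EoL-1 cells, read out by a cell viability assay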
Assay: cells
Assay type: functional, cell-based, Homo sapiens
Settings: Homo sapiens, EOL1
Description: SANGER: Inhibition of human EoL-1-cell cell growth in a cell viability assay.

Row | Structure (SMILES) | IC50
10 | COC(=O)[C@H](CCSC)NC(=O)c1ccc(NC[C@@H](N)CS)cc1-c1ccccc1 | > 1020 nM

Tested on: GCIY;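 note: growth inhibition of the human GCIY cell line, read out by a cell viability assay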
Assay: cells
Assay type: functional, cell-based, Homo sapiens
Settings: Homo sapiens, GCIY
Description: SANGER: Inhibition of human GCIY cell growth in a cell viability assay.

Row | Structure (SMILES) | IC50
11 | COC(=O)[C@H](CCSC)NC(=O)c1ccc(NC[C@@H](N)CS)cc1-c1ccccc1 | > 1020 nM

Tested on: HAL-01;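 note: growth inhibition of human HAL-01 cells, read out with a cell viability assay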
Assay: cells
Assay type: functional, cell-based, Homo sapiens
Settings: Homo sapiens, HAL-01
Description: SANGER: Inhibition of human HAL-01 cell growth in a cell viability assay.

Row | Structure (SMILES) | IC50
12 | COC(=O)[C@H](CCSC)NC(=O)c1ccc(NC[C@@H](N)CS)cc1-c1ccccc1 | > 1020 nM

Tested on: HCC1187;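 note: growth inhibition of HCC1187 cells, read out with a cell viability assay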
Assay: cells
Assay type: functional, cell-based, Homo sapiens
Settings: Homo sapiens, HCC1187
Description: SANGER: Inhibition of human HCC1187 cell growth in a cell viability assay.

Row | Structure (SMILES) | IC50
13 | COC(=O)[C@H](CCSC)NC(=O)c1ccc(NC[C@@H](N)CS)cc1-c1ccccc1 | > 1020 nM

Tested on: HCC2218;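 note: cell viability assay read-out, with IC50 given as the concentration that inhibits growth of the cell line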
Assay: cells
Assay type: functional, cell-based, Homo sapiens
Settings: Homo sapiens, HCC2218
Description: SANGER: Inhibition of human HCC2218 cell growth in a cell viability assay.

Row | Structure (SMILES) | IC50
14 | COC(=O)[C@H](CCSC)NC(=O)c1ccc(NC[C@@H](N)CS)cc1-c1ccccc1 | > 1020 nM

Tested on: HEL;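 note: growth inhibition of HEL cells, read out with a cell viability assay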
Assay: cells
Assay type: functional, cell-based, Homo sapiens
Settings: Homo sapiens, HEL
Description: SANGER: Inhibition of human HEL cell growth in a cell viability assay.

Row | Structure (SMILES) | IC50
15 | COC(=O)[C@H](CCSC)NC(=O)c1ccc(NC[C@@H](N)CS)cc1-c1ccccc1 | > 1020 nM

Tested on: K562
Assay: cells
Assay type: functional, cell-based, Homo sapiens
Settings: Homo sapiens, K562
Description: SANGER: Inhibition of human K-562 cell growth in a cell viability assay.

Row | Structure (SMILES) | IC50
16 | COC(=O)[C@H](CCSC)NC(=O)c1ccc(NC[C@@H](N)CS)cc1-c1ccccc1 | > 1020 nM

Tested on: KINGS-1;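 note: cell viability assay measuring suppression of KINGS-1 cell growth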
Assay: cells
Assay type: functional, cell-based, Homo sapiens
Settings: Homo sapiens, KINGS-1
Description: SANGER: Inhibition of human KINGS-1 cell growth in a cell viability assay.

Row | Structure (SMILES) | IC50
17 | COC(=O)[C@H](CCSC)NC(=O)c1ccc(NC[C@@H](N)CS)cc1-c1ccccc1 | > 1020 nM

Tested on: KNS-42;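 note: growth inhibition of KNS-42 cells, read out with a cell viability assay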
Assay: cells
Assay type: functional, cell-based
Settings: Homo sapiens
Description: SANGER: Inhibition of human KNS-42 cell growth in a cell viability assay.

Row | Structure (SMILES) | IC50
18 | COC(=O)[C@H](CCSC)NC(=O)c1ccc(NC[C@@H](N)CS)cc1-c1ccccc1 | > 1020 nM

Tested on: LB1047-RCC;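 note: inhibition of cell growth, determined with a cell viability assay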
Assay: cells
Assay type: functional, cell-based, Homo sapiens
Settings: Homo sapiens, LB1047-RCC
Description: SANGER: Inhibition of human LB1047-RCC cell growth in a cell viability assay.

Row | Structure (SMILES) | IC50
19 | COC(=O)[C@H](CCSC)NC(=O)c1ccc(NC[C@@H](N)CS)cc1-c1ccccc1 | > 1020 nM

Tested on: LNCaP-Clone-FGC
Assay: cells
Assay type: functional, cell-based, Homo sapiens
Settings: Homo sapiens, LNCaP-Clone-FGC
Description: SANGER: Inhibition of human LNCaP-Clone-FGC cell growth in a cell viability assay.

Row | Structure (SMILES) | IC50
20 | COC(=O)[C@H](CCSC)NC(=O)c1ccc(NC[C@@H](N)CS)cc1-c1ccccc1 | > 1020 nM

Tested on: LU-139
Assay: cells
Assay type: functional, cell-based, Homo sapiens
Settings: Homo sapiens, LU-139
Description: SANGER: Inhibition of human LU-139 cell growth in a cell viability assay.

Row | Structure (SMILES) | IC50
21 | COC(=O)[C@H](CCSC)NC(=O)c1ccc(NC[C@@H](N)CS)cc1-c1ccccc1 | > 1020 nM

Tested on: MFM-223
Assay: cells
Assay type: functional, cell-based, Homo sapiens
Settings: Homo sapiens, MFM-223
Description: SANGER: Inhibition of human MFM-223 cell growth in a cell viability assay.

Row | Structure (SMILES) | IC50
22 | COC(=O)[C@H](CCSC)NC(=O)c1ccc(NC[C@@H](N)CS)cc1-c1ccccc1 | > 1020 nM

Tested on: MSTO-211H
Assay: cells
Assay type: functional, cell-based, Homo sapiens
Settings: Homo sapiens, MSTO-211H
Description: SANGER: Inhibition of human MSTO-211H cell growth in a cell viability assay.

Row | Structure (SMILES) | IC50
23 | COC(=O)[C@H](CCSC)NC(=O)c1ccc(NC[C@@H](N)CS)cc1-c1ccccc1 | > 1020 nM

Tested on: NB10;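 note: growth inhibition of NB10 cells, read out by a cell viability assay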
Assay: cells
Assay type: functional, cell-based, Homo sapiens
Settings: Homo sapiens, NB10
Description: SANGER: Inhibition of human NB10 cell growth in a cell viability assay.

Row | Structure (SMILES) | IC50
24 | COC(=O)[C@H](CCSC)NC(=O)c1ccc(NC[C@@H](N)CS)cc1-c1ccccc1 | > 1020 nM

Tested on: NCI-H1355;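 note: growth inhibition of human NCI-H1355 cells, read out by a cell viability assay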
Assay: cells
Assay type: functional, cell-based, Homo sapiens
Settings: Homo sapiens, NCI-H1355
Description: SANGER: Inhibition of human NCI-H1355 cell growth in a cell viability assay.

Row | Structure (SMILES) | IC50
25 | COC(=O)[C@H](CCSC)NC(=O)c1ccc(NC[C@@H](N)CS)cc1-c1ccccc1 | > 1020 nM

Tested on: NCI-H1838;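 note: growth inhibition of NCI-H1838 cells, determined with a cell viability readout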
Assay: cells
Assay type: functional, cell-based, Homo sapiens
Settings: Homo sapiens, NCI-H1838
Description: SANGER: Inhibition of human NCI-H1838 cell growth in a cell viability assay.

Row | Structure (SMILES) | IC50
26 | COC(=O)[C@H](CCSC)NC(=O)c1ccc(NC[C@@H](N)CS)cc1-c1ccccc1 | > 1020 nM

Tested on: NCI-H69;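 note: growth inhibition of the cell line, read out with a cell viability assay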
Assay: cells
Assay type: functional, cell-based, Homo sapiens
Settings: Homo sapiens, NCI-H69
Description: SANGER: Inhibition of human NCI-H69 cell growth in a cell viability assay.

Row | Structure (SMILES) | IC50
27 | COC(=O)[C@H](CCSC)NC(=O)c1ccc(NC[C@@H](N)CS)cc1-c1ccccc1 | > 1020 nM

Tested on: NEC8;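 note: growth inhibition of human NEC8 cells, read out by a cell viability assay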
Assay: cells
Assay type: functional, cell-based, Homo sapiens
Settings: Homo sapiens, NEC8
Description: SANGER: Inhibition of human NEC8 cell growth in a cell viability assay.

Row | Structure (SMILES) | IC50
28 | COC(=O)[C@H](CCSC)NC(=O)c1ccc(NC[C@@H](N)CS)cc1-c1ccccc1 | > 1020 nM

Tested on: NOMO-1;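 note: growth inhibition of human NOMO-1 cells measured by a cell viability assay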
Assay: cells
Assay type: functional, cell-based, Homo sapiens
Settings: Homo sapiens, NOMO-1
Description: SANGER: Inhibition of human NOMO-1 cell growth in a cell viability assay.

Row | Structure (SMILES) | IC50
29 | COC(=O)[C@H](CCSC)NC(=O)c1ccc(NC[C@@H](N)CS)cc1-c1ccccc1 | > 1020 nM

Tested on: P30-OHK;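 note: growth inhibition of the P30-OHK cell line, read out with a cell viability assay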
Assay: cells
Assay type: functional, cell-based, Homo sapiens
Settings: Homo sapiens, P30-OHK
Description: SANGER: Inhibition of human P30-OHK cell growth in a cell viability assay.

Row | Structure (SMILES) | IC50
30 | COC(=O)[C@H](CCSC)NC(=O)c1ccc(NC[C@@H](N)CS)cc1-c1ccccc1 | > 1020 nM

Tested on: QIMR-WIL;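 note: growth inhibition of QIMR-WIL cells, read out with a cell viability assay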
Assay: cells
Assay type: functional, cell-based, Homo sapiens
Settings: Homo sapiens, QIMR-WIL
Description: SANGER: Inhibition of human QIMR-WIL cell growth in a cell viability assay.

Row | Structure (SMILES) | IC50
31 | COC(=O)[C@H](CCSC)NC(=O)c1ccc(NC[C@@H](N)CS)cc1-c1ccccc1 | > 1020 nM

Tested on: RH-1;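 note: growth inhibition of human RH-1 cells, read out with a cell viability assay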
Assay: cells
Assay type: functional, cell-based, Homo sapiens
Settings: Homo sapiens, RH-1
Description: SANGER: Inhibition of human RH-1 cell growth in a cell viability assay.

Row | Structure (SMILES) | IC50
32 | COC(=O)[C@H](CCSC)NC(=O)c1ccc(NC[C@@H](N)CS)cc1-c1ccccc1 | > 1020 nM

Tested on: RPMI-8226
Assay: cells
Assay type: functional, cell-based, Homo sapiens
Settings: Homo sapiens, RPMI-8226
Description: SANGER: Inhibition of human RPMI-8226 cell growth in a cell viability assay.

Row | Structure (SMILES) | IC50
33 | COC(=O)[C@H](CCSC)NC(=O)c1ccc(NC[C@@H](N)CS)cc1-c1ccccc1 | > 1020 nM

Tested on: SCH;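 note: growth inhibition of human SCH cells, read out in a cell viability assay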
Assay: cells
Assay type: functional, cell-based, Homo sapiens
Settings: Homo sapiens, SCH
Description: SANGER: Inhibition of human SCH cell growth in a cell viability assay.

Row | Structure (SMILES) | IC50
34 | COC(=O)[C@H](CCSC)NC(=O)c1ccc(NC[C@@H](N)CS)cc1-c1ccccc1 | > 1020 nM

Tested on: SF-268;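 note: growth inhibition of SF-268 cells determined with a cell viability assay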
Assay: cells
Assay type: functional, cell-based, Homo sapiens
Settings: Homo sapiens, SF-268
Description: SANGER: Inhibition of human SF268 cell growth in a cell viability assay.

Row | Structure (SMILES) | IC50
35 | COC(=O)[C@H](CCSC)NC(=O)c1ccc(NC[C@@H](N)CS)cc1-c1ccccc1 | > 1020 nM

Tested on: SK-N-DZ;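 note: growth inhibition of the cancer cell line, read out through a viability assay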
Assay: cells
Assay type: functional, cell-based, Homo sapiens
Settings: Homo sapiens, SK-N-DZ; read-out: IC50
Description: SANGER: Inhibition of human SK-N-DZ cell growth in a cell viability assay.

Row | Structure (SMILES) | IC50
36 | COC(=O)[C@H](CCSC)NC(=O)c1ccc(NC[C@@H](N)CS)cc1-c1ccccc1 | > 1020 nM

Tested on: SK-NEP-1;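 note: growth inhibition of human SK-NEP-1 cells, read out by a cell viability assay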
Assay: cells
Assay type: functional, cell-based, Homo sapiens
Settings: Homo sapiens, SK-NEP-1
Description: SANGER: Inhibition of human SK-NEP-1 cell growth in a cell viability assay.

Row | Structure (SMILES) | IC50
37 | COC(=O)[C@H](CCSC)NC(=O)c1ccc(NC[C@@H](N)CS)cc1-c1ccccc1 | > 1020 nM

Tested on: SW872;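 note: growth inhibition of SW872 cells, read out by a viability assay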
Assay: cells
Assay type: functional, cell-based, Homo sapiens
Settings: Homo sapiens, SW872
Description: SANGER: Inhibition of human SW872 cell growth in a cell viability assay.

Row | Structure (SMILES) | IC50
38 | COC(=O)[C@H](CCSC)NC(=O)c1ccc(NC[C@@H](N)CS)cc1-c1ccccc1 | > 1020 nM

Tested on: A101D;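 note: growth inhibition of the cell line, measured with a viability assay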
Assay: cells
Assay type: functional, cell-based, Homo sapiens
Settings: Homo sapiens, A101D
Description: SANGER: Inhibition of human A101D cell growth in a cell viability assay.

Row | Structure (SMILES) | IC50
39 | COC(=O)[C@H](CCSC)NC(=O)c1ccc(NC[C@@H](N)CS)cc1-c1ccccc1 | > 1020 nM

Tested on: A4-Fuk;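 note: growth inhibition of A4-Fuk cells, read out by a cell viability assay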
Assay: cells
Assay type: functional, cell-based, Homo sapiens
Settings: Homo sapiens, A4-Fuk
Description: SANGER: Inhibition of human A4-Fuk cell growth in a cell viability assay.

Row | Structure (SMILES) | IC50
40 | COC(=O)[C@H](CCSC)NC(=O)c1ccc(NC[C@@H](N)CS)cc1-c1ccccc1 | > 1020 nM

Tested on: ATN-1;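 note: growth inhibition of human ATN-1 cells, read out with a cell viability assay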
Assay: cells
Assay type: functional, cell-based, Homo sapiens
Settings: Homo sapiens, ATN-1
Description: SANGER: Inhibition of human ATN-1 cell growth in a cell viability assay.

Row | Structure (SMILES) | IC50
41 | COC(=O)[C@H](CCSC)NC(=O)c1ccc(NC[C@@H](N)CS)cc1-c1ccccc1 | > 1020 nM

Tested on: BV-173
Assay: cells
Assay type: functional, cell-based, Homo sapiens
Settings: Homo sapiens, BV-173
Description: SANGER: Inhibition of human BV-173 cell growth in a cell viability assay.

Row | Structure (SMILES) | IC50
42 | COC(=O)[C@H](CCSC)NC(=O)c1ccc(NC[C@@H](N)CS)cc1-c1ccccc1 | > 1020 nM

Tested on: TE-12;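 note: growth inhibition of TE-12 cells, read out by a cell viability assay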
Assay: cells
Assay type: functional, cell-based, Homo sapiens
Settings: Homo sapiens, TE-12
Description: SANGER: Inhibition of human TE-12 cell growth in a cell viability assay.

Row | Structure (SMILES) | IC50
43 | COC(=O)[C@H](CCSC)NC(=O)c1ccc(NC[C@@H](N)CS)cc1-c1ccccc1 | > 1020 nM

Tested on: TE-8;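 note: growth inhibition of TE-8 cells, measured with a cell viability readout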
Assay: cells
Assay type: functional, cell-based, Homo sapiens
Settings: Homo sapiens, TE-8
Description: SANGER: Inhibition of human TE-8 cell growth in a cell viability assay.

Row | Structure (SMILES) | IC50
44 | COC(=O)[C@H](CCSC)NC(=O)c1ccc(NC[C@@H](N)CS)cc1-c1ccccc1 | > 1020 nM

Tested on: U-87 MG;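 note: growth inhibition of the cells measured with a viability assay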
Assay: cells
Assay type: functional, cell-based, Homo sapiens, U-87MG ATCC
Settings: Homo sapiens, U-87 MG
Description: SANGER: Inhibition of human U-87-MG cell growth in a cell viability assay.

Row | Structure (SMILES) | IC50
45 | COC(=O)[C@H](CCSC)NC(=O)c1ccc(NC[C@@H](N)CS)cc1-c1ccccc1 | > 1020 nM

Tested on: CAS-1;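 note: growth inhibition of CAS-1 cells, measured with a cell viability assay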
Assay: cells
Assay type: functional, cell-based, Homo sapiens
Settings: Homo sapiens, CAS-1
Description: SANGER: Inhibition of human CAS-1 cell growth in a cell viability assay.

Row | Structure (SMILES) | IC50
46 | COC(=O)[C@H](CCSC)NC(=O)c1ccc(NC[C@@H](N)CS)cc1-c1ccccc1 | > 1020 nM

Tested on: COLO-320-HSR;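 note: growth inhibition of COLO-320-HSR cells, determined with a cell viability assay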
Assay: cells
Assay type: functional, cell-based, Homo sapiens
Settings: Homo sapiens, COLO-320-HSR
Description: SANGER: Inhibition of human COLO-320-HSR cell growth in a cell viability assay.

Row | Structure (SMILES) | IC50
47 | COC(=O)[C@H](CCSC)NC(=O)c1ccc(NC[C@@H](N)CS)cc1-c1ccccc1 | > 1020 nM

Tested on: COLO-668
Assay: cells
Assay type: functional, cell-based, Homo sapiens
Settings: Homo sapiens, COLO-668
Description: SANGER: Inhibition of human COLO-668 cell growth in a cell viability assay.

Row | Structure (SMILES) | IC50
48 | COC(=O)[C@H](CCSC)NC(=O)c1ccc(NC[C@@H](N)CS)cc1-c1ccccc1 | > 1020 nM
